PubChem BioAssay AID328 (DTP/NCI, 2004)
Values joined by “and” are separate entries in the source; they are usually repeats but may differ in a detail not shown here. Identical values can stand only once. Toxic doses and inconclusive results are not listed.

Test system: BDF1 mice, P388 leukemia ip, median survival T/C
Assay: NCI In Vivo Anticancer Drug Screen. Data for tumor model P388 Leukemia (intraperitoneal) in B6D2F1 (BDF1) mice
Conditions: endpoint: median survival time, higher = longer survival
Method in brief: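 Transplantable tumour in mice; compound vs vehicle dosing; survival scored; ratio of treated to control reported.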

[1] = dose: 50.0 mg/kg/injection, schedule: Q04DX003 (ip), vehicle: saline with Tween-80
[2] = dose: 100.0 mg/kg/injection, schedule: Q04DX003 (ip), vehicle: saline with Tween-80
[3] = dose: 200.0 mg/kg/injection, schedule: Q04DX003 (ip), vehicle: saline with Tween-80
[4] = dose: 75.0 mg/kg/injection, schedule: Q01DX009 (ip), vehicle: saline with Tween-80
[5] = dose: 12.5 mg/kg/injection, schedule: Q01DX009 (ip), vehicle: saline
[6] = dose: 12.5 mg/kg/injection, schedule: Q04DX003 (ip), vehicle: saline
[7] = dose: 25.0 mg/kg/injection, schedule: Q01DX009 (ip), vehicle: saline
[8] = dose: 25.0 mg/kg/injection, schedule: Q04DX003 (ip), vehicle: saline
[9] = dose: 50.0 mg/kg/injection, schedule: Q01DX009 (ip), vehicle: saline with Tween-80
[10] = dose: 50.0 mg/kg/injection, schedule: Q01DX009 (ip), vehicle: saline
[11] = dose: 50.0 mg/kg/injection, schedule: Q04DX003 (ip), vehicle: saline
[12] = dose: 100.0 mg/kg/injection, schedule: Q01DX009 (ip), vehicle: Klucel (hydroxypropylcellulose) (HPC)
[13] = dose: 100.0 mg/kg/injection, schedule: Q01DX009 (ip), vehicle: saline with Tween-80
[14] = dose: 100.0 mg/kg/injection, schedule: Q01DX009 (ip), vehicle: saline
[15] = dose: 200.0 mg/kg/injection, schedule: Q01DX009 (ip), vehicle: Klucel (hydroxypropylcellulose) (HPC)
[16] = dose: 200.0 mg/kg/injection, schedule: Q01DX009 (ip), vehicle: saline with Tween-80
[17] = dose: 200.0 mg/kg/injection, schedule: Q01DX009 (ip), vehicle: saline
[18] = dose: 400.0 mg/kg/injection, schedule: Q01DX009 (ip), vehicle: Klucel (hydroxypropylcellulose) (HPC)
[19] = dose: 200.0 mg/kg/injection, schedule: Q04DX002 (ip), vehicle: saline with Tween-80
[20] = dose: 400.0 mg/kg/injection, schedule: Q04DX003 (ip), vehicle: saline with Tween-80
[21] = dose: 25.0 mg/kg/injection, schedule: Q04DX003 (ip), vehicle: saline with Tween-80

C#CC[As+](c1ccccc1)(c1ccccc1)c1ccccc1
T/C (dose: 3.0 mg/kg/injection, schedule: Q01DX009 (ip), vehicle: Klucel (hydroxypropylcellulose) (HPC)): 121 % of control
T/C (dose: 5.3 mg/kg/injection, schedule: Q04DX003 (ip), vehicle: Klucel (hydroxypropylcellulose) (HPC)): 117 % of control
T/C (dose: 12.0 mg/kg/injection, schedule: Q04DX003 (ip), vehicle: Klucel (hydroxypropylcellulose) (HPC)): 104 % of control and 113 % of control
T/C (dose: 25.0 mg/kg/injection, schedule: Q04DX003 (ip), vehicle: Klucel (hydroxypropylcellulose) (HPC)): 109 % of control

COc1ccc2cc(OC)ccc2c1
T/C (dose: 100.0 mg/kg/injection, schedule: Q01DX001 (ip), vehicle: saline sonified): 100 % of control
T/C (dose: 200.0 mg/kg/injection, schedule: Q01DX001 (ip), vehicle: saline sonified): 100 % of control
T/C (dose: 400.0 mg/kg/injection, schedule: Q01DX001 (ip), vehicle: saline sonified): 100 % of control

CC(=O)Nc1ccc(S(=O)(=O)F)cc1
T/C [1]: 87 % of control
T/C [2]: 104 % of control
T/C [3]: 100 % of control

Cc1[nH][nH]c(=O)c1N=O
T/C (dose: 18.75 mg/kg/injection, schedule: Q01DX009 (ip), vehicle: saline with Tween-80): 92 % of control
T/C (dose: 37.5 mg/kg/injection, schedule: Q01DX009 (ip), vehicle: saline with Tween-80): 99 % of control
T/C [4]: 99 % of control

CCOC(=O)c1cnn(-c2ccccc2)c1N
T/C (dose: 6.25 mg/kg/injection, schedule: Q04DX003 (ip), vehicle: saline): 110 % of control
T/C [5]: 102 % of control
T/C [6]: 107 % of control
T/C [7]: 96 % of control
T/C [8]: 100 % of control
T/C [9]: 243 % of control
T/C [10]: 96 % of control and 104 % of control
T/C [11]: 100 % of control
T/C [12]: 104 % of control
T/C [13]: 241 % of control
T/C [14]: 104 % of control and 105 % of control
T/C (dose: 100.0 mg/kg/injection, schedule: Q04DX003 (ip), vehicle: Klucel (hydroxypropylcellulose) (HPC)): 95 % of control
T/C (dose: 100.0 mg/kg/injection, schedule: Q04DX003 (ip), vehicle: saline): 95 % of control
T/C [15]: 95 % of control
T/C [16]: 91 % of control
T/C [17]: 86 % of control
T/C (dose: 200.0 mg/kg/injection, schedule: Q04DX003 (ip), vehicle: Klucel (hydroxypropylcellulose) (HPC)): 100 % of control
T/C [18]: 86 % of control
T/C (dose: 400.0 mg/kg/injection, schedule: Q04DX003 (ip), vehicle: Klucel (hydroxypropylcellulose) (HPC)): 87 % of control

CCO/C=C1\SC(=S)N(c2ccc(O)cc2)C1=O
T/C [9]: 116 % of control
T/C [13]: 116 % of control
T/C [16]: 116 % of control

O=C(O)/C(Cl)=C(Cl)\C=N\Nc1ccccc1
T/C [19]: 98 % of control

S=c1[nH]nc2n1NC(c1ccccc1)=NN2
T/C [2]: 91 % of control
T/C [3]: 87 % of control
T/C [20]: 95 % of control

O=C(NNC(=O)C12CC3CC(CC(C3)C1)C2)c1ccncc1
T/C [9]: 96 % of control
T/C [13]: 101 % of control
T/C [16]: 92 % of control

O=S(=O)(O)O.[N-]=C(N)/N=C(\[NH-])N.[N-]=C(N)/N=C(\[NH-])N.[N-]=C(N)NC(=[N-])N.[Rh+3]
T/C (dose: 6.25 mg/kg/injection, schedule: Q01DX009 (ip), vehicle: saline): 104 % of control
T/C [5]: 95 % of control
T/C [6]: 100 % of control
T/C [7]: 119 % of control
T/C [8]: 109 % of control
T/C [11]: 118 % of control

CC1(C)C2CC34CCCN3C(=O)C2(CC12Nc1ccccc1C2=O)NC4=O (stereo not given)
T/C [10]: 102 % of control
T/C [14]: 109 % of control
T/C [17]: 113 % of control

O=C(/C=C/c1ccc2c(c1)OCO2)c1ccc(Cl)cc1
T/C [1]: 100 % of control
T/C [2]: 100 % of control
T/C [3]: 100 % of control

S=c1[nH]nc2n1NC(c1ccoc1)=NN2
T/C [21]: 122 % of control
T/C [1]: 100 % of control
T/C [2]: 113 % of control

CCOc1nc(N)c(C(N)=O)cc1C#N
T/C (dose: 25.0 mg/kg/injection, schedule: Q01DX009 (ip), vehicle: saline with Tween-80): 105 % of control
T/C [9]: 110 % of control
T/C (dose: 66.0 mg/kg/injection, schedule: Q01DX009 (ip), vehicle: saline with Tween-80): 92 % of control and 110 % of control
T/C [13]: 150 % of control
T/C (dose: 150.0 mg/kg/injection, schedule: Q01DX009 (ip), vehicle: saline with Tween-80): 88 % of control and 95 % of control

CCC[CH2][Sn]1([CH2]CCC)[O]OC2(CCCCC2)[O]1
T/C (dose: 1.25 mg/kg/injection, schedule: Q01DX009 (ip), vehicle: Klucel (hydroxypropylcellulose) (HPC)): 115 % of control
T/C (dose: 1.57 mg/kg/injection, schedule: Q04DX003 (ip), vehicle: saline sonified): 122 % of control
T/C (dose: 3.13 mg/kg/injection, schedule: Q04DX003 (ip), vehicle: saline sonified): 116 % of control
T/C (dose: 5.0 mg/kg/injection, schedule: Q01DX009 (ip), vehicle: Klucel (hydroxypropylcellulose) (HPC)): 115 % of control

CC1CN1S(=O)(=O)N1CC1C (stereo not given)
T/C (dose: 3.75 mg/kg/injection, schedule: Q01DX009 (ip), vehicle: saline with Tween-80): 100 % of control
T/C (dose: 7.5 mg/kg/injection, schedule: Q01DX009 (ip), vehicle: saline with Tween-80): 112 % of control
T/C (dose: 15.0 mg/kg/injection, schedule: Q01DX009 (ip), vehicle: saline with Tween-80): 158 % of control
T/C (dose: 16.5 mg/kg/injection, schedule: Q04DX003 (ip), vehicle: saline with Tween-80): 113 % of control
T/C [21]: 154 % of control and 213 % of control
T/C (dose: 30.0 mg/kg/injection, schedule: Q01DX009 (ip), vehicle: saline with Tween-80): 258 % of control
T/C (dose: 37.5 mg/kg/injection, schedule: Q04DX003 (ip), vehicle: saline with Tween-80): 204 % of control

O=[N+]([O-])c1ccc(S(=O)(=O)c2ccccc2)c2c1no[n+]2[O-]
T/C (dose: 10.0 mg/kg/injection, schedule: Q01DX009 (ip), vehicle: saline with Tween-80): 109 % of control
T/C (dose: 20.0 mg/kg/injection, schedule: Q01DX009 (ip), vehicle: saline with Tween-80): 106 % of control
T/C (dose: 40.0 mg/kg/injection, schedule: Q01DX009 (ip), vehicle: saline with Tween-80): 106 % of control

CCOC(=O)NC1CCC2c3ccccc3C([N+](=O)[O-])(C1)c1ccccc12 (stereo not given)
T/C [1]: 100 % of control
T/C [2]: 104 % of control
T/C [3]: 100 % of control

Cc1cccc(NC=O)c1
T/C [9]: 109 % of control
T/C [4]: 113 % of control
T/C [2]: 115 % of control
T/C (dose: 115.0 mg/kg/injection, schedule: Q01DX009 (ip), vehicle: saline with Tween-80): 104 % of control
T/C [3]: 96 % of control
T/C (dose: 225.0 mg/kg/injection, schedule: Q01DX009 (ip), vehicle: saline with Tween-80): 109 % of control
T/C (dose: 300.0 mg/kg/injection, schedule: Q01DX009 (ip), vehicle: saline with Tween-80): 113 % of control
T/C [20]: 96 % of control

COc1ccc(C(=NO)c2ccc(OC)cc2)cc1
T/C [12]: 109 % of control
T/C [14]: 100 % of control and 109 % of control
T/C [15]: 118 % of control
T/C [17]: 105 % of control and 109 % of control
T/C [18]: 118 % of control
T/C (dose: 400.0 mg/kg/injection, schedule: Q01DX009 (ip), vehicle: saline): 120 % of control

CC(=O)N/N=C\C1=CCC=C(Br)S1
T/C [9]: 90 % of control
T/C [13]: 104 % of control

COCc1cnc2nc(N)nc(N)c2n1
T/C (dose: 3.13 mg/kg/injection, schedule: Q01DX009 (ip), vehicle: other): 116 % of control

CCc1ccc(NC(=O)c2cccc(Cl)c2)cc1
T/C [2]: 109 % of control
T/C [3]: 109 % of control
T/C [20]: 109 % of control

CCC(C)(CCC(=O)O)c1ccccc1 (stereo not given)
T/C (dose: 100.0 mg/kg/injection, schedule: Q04DX002 (ip), vehicle: saline with Tween-80): 97 % of control
T/C [19]: 103 % of control
T/C (dose: 400.0 mg/kg/injection, schedule: Q04DX002 (ip), vehicle: saline with Tween-80): 106 % of control

OC(CC(O)(C(F)(F)F)C(F)(F)F)c1cccc(C(F)(F)F)c1 (stereo not given)
T/C (dose: 100.0 mg/kg/injection, schedule: Q04DX003 (ip), vehicle: other): 100 % of control
T/C (dose: 200.0 mg/kg/injection, schedule: Q04DX003 (ip), vehicle: other): 104 % of control
T/C (dose: 400.0 mg/kg/injection, schedule: Q04DX003 (ip), vehicle: other): 95 % of control
